Measured values taken from patent publication US20230255884A1, “FINISHED FIBROUS SRUCTURES AND METHODS OF THEIR USE AND PREPARATION” (CLEXIO BIOSCIENCES LTD., priority 2019, published 2023).
Counter-ions that a name gives are not always drawn. Like-named read-outs stand apart in the source and are kept apart here.

Experiments:
[1] = Example 16: % Add on of diclofenac compositions (10% Diclofenac sodium salt, 10% PEG 400, 10% propylene glycol, 2% Polysorbate 80), 60° C., 1 h, squeezed; assay type: physicochemical
Experimental: The samples were then removed from their vessels, squeezed, weighed and left to dry overnight at room temperature before their dry weight and percentage Add on were determined.

[2] = Example 16: diclofenac in the mother liquor by HPLC; assay type: physicochemical
[3] = Example 20: loading kinetics, aqueous 10% lidocaine, 10% PEG 400, 10% propylene glycol, 2% Polysorbate 80, 60° C., pre-cut shapes of 91.4% polyamide/8.6% elastane, squeezed; assay type: physicochemical
[4] = Example 11: % Add on from aqueous lidocaine without excipients, 60° C., 1 h, 91.4% polyamide/8.6% elastane; assay type: physicochemical
[5] = assay type: physicochemical; settings: 25° C.
[6] = Example 22: % Add on by humectant and permeation enhancer concentration, 60° C., 1 h, squeezed; assay type: physicochemical; settings: 3% lidocaine
[7] = Example 23: % Add on by surfactant concentration, 60° C., 1 h; assay type: physicochemical; settings: 3% lidocaine
[8] = Example 26: leveling; % lidocaine Add on from extraction in 0.01M HCl and HPLC; assay type: physicochemical
[9] = Example 21: % Add on by finish composition, 60° C., 1 h, 91.4% polyamide/8.6% elastane; assay type: physicochemical
[10] = Example 9: % Add on of 91.4% polyamide/8.6% elastane after 1 h in aqueous 10% PEG 400, 10% propylene glycol, 2% Polysorbate 80 with lidocaine, dried overnight at RT; assay type: physicochemical
[11] = 3% lidocaine, 2% Polysorbate 80
[12] = 3% lidocaine, 10% PEG 400, 2% Polysorbate 80
[13] = 3% lidocaine, 10% PEG 400, 10% propylene glycol
[14] = 3% lidocaine, 10% PEG 400, 10% propylene glycol, 2% Polysorbate 80
[15] = 3% lidocaine, 10% propylene glycol
[16] = 3% lidocaine, 10% propylene glycol, 2% Polysorbate 80

O=C(O)Cc1ccccc1Nc1c(Cl)cccc1Cl [Diclofenac, Diclofenac sodium salt]
% Add on ([1]; NaOH 1 drop, pH 13.2): 32.0%
% Add on ([1]; NaOH 1 drop, pH 14.0): 46.0%
% Add on ([1]; ethanol 13.6% (w/w), no NaOH, pH 8.3): 44.1%
% Add on ([1]; no ethanol, no NaOH, pH 8.5): 42.2%
diclofenac concentration in the mother liquor ([2]; ethanol based liquor): 90.76 mg/g
diclofenac concentration in the mother liquor ([2]; water based liquor): 93.68 mg/g

CCN(CC)CC(=O)Nc1c(C)cccc1C [Lidocaine, lidocaine]
% Add on ([3]; loading time 1 min, Combined): 29.915%
% Add on ([3]; loading time 1 min, Shape A): 29.820%
% Add on ([3]; loading time 1 min, Shape B): 27.838%
% Add on ([3]; loading time 1 min, Shape C): 30.455%
% Add on ([3]; loading time 1 min, Shape D): 31.547%
% Add on ([3]; loading time 2 min, Combined): 35.227%
% Add on ([3]; loading time 2 min, Shape A): 34.985%
% Add on ([3]; loading time 2 min, Shape B): 36.019%
% Add on ([3]; loading time 2 min, Shape C): 34.260%
% Add on ([3]; loading time 2 min, Shape D): 35.643%
% Add on ([3]; loading time 3 min, Combined): 36.500%
% Add on ([3]; loading time 3 min, Shape A): 37.273%
% Add on ([3]; loading time 3 min, Shape B): 36.782%
% Add on ([3]; loading time 3 min, Shape C): 35.879%
% Add on ([3]; loading time 3 min, Shape D): 36.064%
% Add on ([3]; loading time 6 min, Combined): 41.938%
% Add on ([3]; loading time 6 min, Shape A): 42.242%
% Add on ([3]; loading time 6 min, Shape B): 44.328%
% Add on ([3]; loading time 6 min, Shape C): 40.764%
% Add on ([3]; loading time 6 min, Shape D): 40.418%
% Add on ([3]; loading time 10 min, Combined): 41.190%
% Add on ([3]; loading time 10 min, Shape A): 39.998%
% Add on ([3]; loading time 10 min, Shape B): 44.262%
% Add on ([3]; loading time 10 min, Shape C): 40.939%
% Add on ([3]; loading time 10 min, Shape D): 39.560%
% Add on ([3]; loading time 60 min, Combined): 44.374%
% Add on ([3]; loading time 60 min, Shape B): 41.509%
% Add on ([3]; loading time 60 min, Shape C): 48.701%
% Add on ([3]; loading time 60 min, Shape D): 41.556%
% Add on ([3]; loading time 120 min, Combined): 42.458%
% Add on ([3]; loading time 120 min, Shape A): 42.233%
% Add on ([3]; loading time 120 min, Shape B): 43.286%
% Add on ([3]; loading time 120 min, Shape C): 43.679%
% Add on ([3]; loading time 120 min, Shape D): 40.635%
% Add on ([3]; loading time 180 min, Combined): 41.691%
% Add on ([3]; loading time 180 min, Shape A): 42.281%
% Add on ([3]; loading time 180 min, Shape B): 40.802%
% Add on ([3]; loading time 180 min, Shape C): 42.474%
% Add on ([3]; loading time 180 min, Shape D): 41.206%
% Add on ([4]; lidocaine 0.1% w/w, dried at RT): 1.03%
% Add on ([4]; lidocaine 0.1% w/w, squeezed): 1.09%
% Add on ([4]; lidocaine 0.4% w/w, dried at RT): 2.86%
% Add on ([4]; lidocaine 0.4% w/w, squeezed): 2.91%
% Add on ([4]; lidocaine 1% w/w, dried at RT): 8.03%
% Add on ([4]; lidocaine 1% w/w, squeezed): 7.57%
% Add on ([4]; lidocaine 3% w/w, dried at RT): 22.17%
% Add on ([4]; lidocaine 3% w/w, squeezed): 28.01%
% Add on ([4]; lidocaine 5% w/w, dried at RT): 31.61%
% Add on ([4]; lidocaine 5% w/w, squeezed): 39.06%
% Add on ([4]; lidocaine 10% w/w, dried at RT): 102.39%
% Add on ([4]; lidocaine 10% w/w, squeezed): 30.39%
% Add on ([4]; lidocaine 15% w/w, dried at RT): 62.68%
% Add on ([4]; lidocaine 15% w/w, squeezed): 98.46%
% Add on ([4]; lidocaine 25% w/w, dried at RT): 56.33%
% Add on ([4]; lidocaine 25% w/w, squeezed): 148.02%
% Add on ([5]; lidocaine 0.1%, dried at RT): 42.31%
% Add on ([5]; lidocaine 0.1%, squeezed): 7.23%
% Add on ([5]; lidocaine 0.1%, washed in NaOH): 2.74%
% Add on ([5]; lidocaine 0.1%, washed in water): 1.40%
% Add on ([5]; lidocaine 25%, dried at RT): 118.56%
Mean % Add on ([6]; 2% PEG 400, 2% Polysorbate 80): 16.59%
Mean % Add on ([6]; 2% propylene glycol, 2% Polysorbate 80): 14.96%
Mean % Add on ([6]; 8% PEG 400, 2% Polysorbate 80): 26.06%
Mean % Add on ([6]; 8% propylene glycol, 2% Polysorbate 80): 15.93%
Mean % Add on ([6]; 15% PEG 400, 2% Polysorbate 80): 30.96%
Mean % Add on ([6]; 15% propylene glycol, 2% Polysorbate 80): 14.84%
Mean % Add on ([6]; 20% PEG 400, 2% Polysorbate 80): 37.95%
Mean % Add on ([6]; 20% propylene glycol, 2% Polysorbate 80): 16.03%
Mean % Add on (dried at RT) ([7]; 2% Polysorbate 80): 16.18%
Mean % Add on (dried at RT) ([7]; 5% Polysorbate 80): 22.89%
Mean % Add on (dried at RT) ([7]; 8% Polysorbate 80): 21.18%
Mean % Add on (dried at RT) ([7]; 10% PEG 400): 39.67%
Mean % Add on (dried at RT) ([7]; 10% Polysorbate 80): 24.11%
Mean % Add on (dried at RT) ([7]; 10% propylene glycol): 23.99%
Mean % Add on (dried at RT) ([7]; 15% Polysorbate 80): 33.29%
Mean % Add on (dried at RT) ([7]; 20% Polysorbate 80): 38.08%
% lidocaine Add on ([8]; exposure to 0.01M HCl 1 hr): 18.86%
% lidocaine Add on ([8]; exposure to 0.01M HCl 2 hr): 18.07%
% lidocaine Add on ([8]; exposure to 0.01M HCl 4 hr): 18.78%
% lidocaine Add on ([8]; exposure to 0.01M HCl 6 hr): 18.25%
% lidocaine Add on ([8]; exposure to 0.01M HCl 22 hr): 18.04%
Mean % Add on (dried at RT) ([9]; 3% lidocaine only): 37.25%
Mean % Add on (squeezed) ([9]; 3% lidocaine only): 20.27%
Mean % Add on (dried at RT) [9, 11]: 19.10%
Mean % Add on (squeezed) [9, 11]: 14.97%
Mean % Add on (dried at RT) ([9]; 3% lidocaine, 10% PEG 400): 54.02%
Mean % Add on (squeezed) ([9]; 3% lidocaine, 10% PEG 400): 32.03%
Mean % Add on (dried at RT) [9, 12]: 42.88%
Mean % Add on (squeezed) [9, 12]: 24.91%
Mean % Add on (dried at RT) [9, 13]: 56.37%
Mean % Add on (squeezed) [9, 13]: 30.01%
Mean % Add on (dried at RT) [9, 14]: 40.92%
Mean % Add on (squeezed) [9, 14]: 25.73%
Mean % Add on (dried at RT) [9, 15]: 34.89%
Mean % Add on (squeezed) [9, 15]: 21.14%
Mean % Add on (dried at RT) [9, 16]: 19.34%
Mean % Add on (squeezed) [9, 16]: 14.48%
% Add on ([10]; lidocaine 0.1% (w/w), 2-8° C.): 25.93%
% Add on ([10]; lidocaine 0.1% (w/w), 50° C.): 32.73%
% Add on ([10]; lidocaine 0.1% (w/w), 80° C.): 32.20%
% Add on ([10]; lidocaine 0.1% (w/w), RT): 23.91%
% Add on ([10]; lidocaine 0.5% (w/w), 2-8° C.): 31.48%
% Add on ([10]; lidocaine 0.5% (w/w), 50° C.): 29.79%
% Add on ([10]; lidocaine 0.5% (w/w), 80° C.): 23.91%
% Add on ([10]; lidocaine 0.5% (w/w), RT): 26.79%
% Add on ([10]; lidocaine 1% (w/w), 2-8° C.): 34.00%
% Add on ([10]; lidocaine 1% (w/w), 50° C.): 64.44%
% Add on ([10]; lidocaine 1% (w/w), 80° C.): 32.14%
% Add on ([10]; lidocaine 1% (w/w), RT): 33.96%
% Add on ([10]; lidocaine 3% (w/w), 2-8° C.): 40.00%
% Add on ([10]; lidocaine 3% (w/w), 50° C.): 56.52%
% Add on ([10]; lidocaine 3% (w/w), 80° C.): 48.98%
% Add on ([10]; lidocaine 3% (w/w), RT): 43.75%
% Add on ([10]; lidocaine 5% (w/w), 2-8° C.): 60.00%
% Add on ([10]; lidocaine 5% (w/w), 50° C.): 46.00%
% Add on ([10]; lidocaine 5% (w/w), 80° C.): 64.91%
% Add on ([10]; lidocaine 5% (w/w), RT): 47.27%
% Add on ([10]; lidocaine 8% (w/w), 2-8° C.): 50.00%
% Add on ([10]; lidocaine 8% (w/w), 50° C.): 64.15%
% Add on ([10]; lidocaine 8% (w/w), 80° C.): 89.13%
% Add on ([10]; lidocaine 8% (w/w), RT): 58.00%
% Add on ([10]; lidocaine 10% (w/w), 2-8° C.): 55.77%
% Add on ([10]; lidocaine 10% (w/w), 50° C.): 74.55%
% Add on ([10]; lidocaine 10% (w/w), 80° C.): 78.72%
% Add on ([10]; lidocaine 10% (w/w), RT): 102.04%
% Add on ([10]; lidocaine 15% (w/w), 2-8° C.): 69.77%
% Add on ([10]; lidocaine 15% (w/w), 50° C.): 95.74%
% Add on ([10]; lidocaine 15% (w/w), 80° C.): 117.78%
% Add on ([10]; lidocaine 15% (w/w), RT): 116.98%
% Add on ([10]; lidocaine 20% (w/w), 2-8° C.): 78.72%
% Add on ([10]; lidocaine 20% (w/w), 50° C.): 107.41%
% Add on ([10]; lidocaine 20% (w/w), 80° C.): 116.00%
% Add on ([10]; lidocaine 20% (w/w), RT): 134.04%
% Add on ([10]; lidocaine 25% (w/w), 2-8° C.): 132.08%
% Add on ([10]; lidocaine 25% (w/w), 50° C.): 124.00%
% Add on ([10]; lidocaine 25% (w/w), 80° C.): 132.56%
% Add on ([10]; lidocaine 25% (w/w), RT): 269.57%
